Test results: ChEMBL document CHEMBL1140510, “New 1,2,3,4-tetrahydropyrrolo[3,4-b]indole derivatives as selective CB2 receptor agonists” (Bioorg Med Chem Lett, 2007)

Tests used:
[1] = organism: Homo sapiens; test: Selectivity for human CB2 receptor over human CB1 receptor
[2] = target: Cannabinoid receptor 1 (Homo sapiens, UniProt P21554); test: Binding affinity to human CB1 receptor
[3] = target: T1, Cannabinoid receptor 2 (Homo sapiens, UniProt P34972); test: Binding affinity to human CB2 receptor
[4] = target: T1, Cannabinoid receptor 2; test: Agonist activity at human CB2 receptor by GTPgamma[35S] assay; format: functional
[5] = target: T1, Cannabinoid receptor 2; test: Agonist activity at human CB2 receptor by GTPgamma[35S] assay relative to WIN-55212-2; format: functional

T1 sequence (P34972 whole entry): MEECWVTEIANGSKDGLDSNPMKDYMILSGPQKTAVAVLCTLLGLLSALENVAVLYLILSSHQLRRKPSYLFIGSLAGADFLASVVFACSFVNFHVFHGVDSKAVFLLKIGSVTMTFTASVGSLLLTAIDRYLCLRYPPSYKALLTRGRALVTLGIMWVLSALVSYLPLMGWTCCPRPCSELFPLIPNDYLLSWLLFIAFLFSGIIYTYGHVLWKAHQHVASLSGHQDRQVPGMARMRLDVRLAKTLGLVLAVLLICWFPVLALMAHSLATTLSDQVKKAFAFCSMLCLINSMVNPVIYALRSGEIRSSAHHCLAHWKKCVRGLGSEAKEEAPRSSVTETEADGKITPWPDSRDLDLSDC
Chain of Cannabinoid receptor 1 (P21554 whole entry): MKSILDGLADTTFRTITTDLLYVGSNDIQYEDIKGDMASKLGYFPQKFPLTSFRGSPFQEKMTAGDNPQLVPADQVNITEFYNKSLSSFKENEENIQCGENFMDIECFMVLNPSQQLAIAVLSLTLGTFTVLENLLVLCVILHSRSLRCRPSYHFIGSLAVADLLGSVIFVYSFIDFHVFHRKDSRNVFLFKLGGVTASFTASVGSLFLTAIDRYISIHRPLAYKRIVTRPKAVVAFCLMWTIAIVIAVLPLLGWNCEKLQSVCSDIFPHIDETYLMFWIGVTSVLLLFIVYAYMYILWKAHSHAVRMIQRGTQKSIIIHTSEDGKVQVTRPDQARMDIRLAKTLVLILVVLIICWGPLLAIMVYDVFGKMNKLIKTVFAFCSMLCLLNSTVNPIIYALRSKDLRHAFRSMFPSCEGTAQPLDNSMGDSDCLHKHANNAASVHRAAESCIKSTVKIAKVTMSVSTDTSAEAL

| Compound | Ratio Ki [1] | Ki [2] [nM] | Ki [3] [nM] | EC50 [4] [nM] | Emax [5] [%] |
| --- | --- | --- | --- | --- | --- |
| CCS(=O)(=O)n1c2c(c3cc(C(=O)N4CCC(F)CC4)ccc31)CN(C1CCCC1)C2 | 65.9 | 2910 | 44.2 |  |  |
| CCS(=O)(=O)n1c2c(c3cc(C(=O)N4CCC(C)CC4)ccc31)CN(CC1CCCCC1)C2 | 0.4 | 339 | 935 |  |  |
| CCS(=O)(=O)n1c2c(c3cc(C(=O)N4CCC(C)CC4)ccc31)CN(C(C)C)C2 | 47 | 418 | 8.9 | 0.9 | 101 |
| CCS(=O)(=O)n1c2c(c3cc(C(=O)N(C)CCC(C)C)ccc31)CN(C1CCCC1)C2 | 38.7 | 1470 | 38.1 |  |  |
| CC1CCN(C(=O)c2ccc3[nH]c4c(c3c2)CN(C2CCCC2)C4)CC1 |  | > 8000 | 4720 |  |  |
| CC1CCN(C(=O)c2ccc3c(c2)c2c(n3S(C)(=O)=O)CN(C3CCCC3)C2)CC1 | 35.3 | 279 | 7.9 | 0.6 | 105 |
| CCS(=O)(=O)n1c2c(c3cc(C(=O)N4CCC(C)CC4)ccc31)CN(C1CCCC1)C2 | 9.4 | 66.3 | 7 | 0.8 | 110 |
| CCCS(=O)(=O)n1c2c(c3cc(C(=O)N4CCC(C)CC4)ccc31)CN(C1CCCC1)C2 | 8.7 | 195 | 22.3 | 6.7 | 90 |
| CCS(=O)(=O)n1c2c(c3cc(C(=O)N4CCOCC4)ccc31)CN(C1CCCC1)C2 | > 25 | > 8000 | 308 |  |  |
| CCCCN1Cc2c(n(S(=O)(=O)CC)c3ccc(C(=O)N4CCC(C)CC4)cc23)C1 | 20.3 | 341 | 16.8 | 2.7 | 105 |
| CC(=O)n1c2c(c3cc(C(=O)N4CCC(C)CC4)ccc31)CN(C1CCCC1)C2 | 26.5 | 2330 | 88.1 |  |  |
| CCS(=O)(=O)n1c2c(c3cc(C(=O)N(C)C(C)C)ccc31)CN(C1CCCC1)C2 | 67.5 | 7220 | 107 |  |  |
| CCCN1Cc2c(n(S(=O)(=O)CC)c3ccc(C(=O)N4CCC(C)CC4)cc23)C1 | 54.4 | 604 | 11.1 | 0.8 | 104 |
| CC1CCN(C(=O)c2ccc3c(c2)c2c(n3C)CN(C3CCCC3)C2)CC1 | 21.4 | 1810 | 84.7 |  |  |
| C=CCN1Cc2c(n(S(=O)(=O)CC)c3ccc(C(=O)N4CCC(C)CC4)cc23)C1 | 41.1 | 263 | 6.4 | 0.3 | 104 |
| C=CCn1c2c(c3cc(C(=O)N4CCC(C)CC4)ccc31)CN(C1CCCC1)C2 | 29.8 | 695 | 23.3 | 5 | 92 |
| CCS(=O)(=O)n1c2c(c3cc(C(=O)N4CCC(C)CC4)ccc31)CN(Cc1ccccc1)C2 | 34.4 | 1270 | 37 |  |  |
| CCS(=O)(=O)n1c2c(c3cc(C(=O)N4CCC(C)CC4)ccc31)CN(C1CCCCO1)C2 (stereo not drawn) | 351 | 6180 | 17.6 | 1.7 | 107 |
| CCS(=O)(=O)n1c2c(c3cc(C(=O)N4CCC(C)CC4)ccc31)CN(CCC1CCCCC1)C2 | 1.4 | 2740 | 1980 |  |  |
| CC1CCN(C(=O)c2ccc3c(c2)c2c(n3S(=O)(=O)C3CC3)CN(C3CCCC3)C2)CC1 | 14.6 | 137 | 9.4 | 1.5 | 101 |
| CCS(=O)(=O)n1c2c(c3cc(C(=O)N4CCC(C)CC4)ccc31)CN(CC1CC1)C2 |  |  | 6.3 | 0.5 |  |
| CC1CCN(C(=O)c2ccc3c(c2)c2c(n3S(=O)(=O)c3ccccc3)CN(C3CCCC3)C2)CC1 | 14.5 | 259 | 17.9 | 15.6 | -62 |
| CCS(=O)(=O)n1c2c(c3cc(C(=O)N4CCC(OC)CC4)ccc31)CN(C1CCCC1)C2 | 77.2 | 2130 | 27.6 |  |  |
| CCCCCc1cc(O)c2c(c1)CC(C)(C)[C@@H]1CCC(C)=C[C@@H]21 | 0.14 | 20.1 | 140 | 13.5 | 64 |
| CC1CCN(C(=O)c2ccc3c(c2)c2c(n3S(=O)(=O)C(C)C)CN(C3CCCC3)C2)CC1 | 35.7 | 150 | 4.2 | 0.5 | 105 |
| CC1CCN(C(=O)c2ccc3c(c2)c2c(n3Cc3ccccc3)CN(C3CCCC3)C2)CC1 | 6.2 | 658 | 106 |  |  |
| CCS(=O)(=O)n1c2c(c3cc(C(=O)N4CCC(C)CC4)ccc31)CN(C1CCOCC1)C2 | 14 | 3020 | 216 |  |  |
| CCS(=O)(=O)n1c2c(c3cc(C(=O)N4CCC(C)CC4)ccc31)CN(C1CCOC1)C2 (stereo not drawn) | 35 | 973 | 27.8 |  |  |
| CCCCN(C)C(=O)c1ccc2c(c1)c1c(n2S(=O)(=O)CC)CN(C2CCCC2)C1 | 34.9 | 779 | 22.3 | 4 | 111 |
| CCS(=O)(=O)n1c2c(c3cc(C(=O)N4CCCCC4)ccc31)CN(C1CCCC1)C2 | 46.7 | 818 | 17.5 | 1.7 | 107 |
